Assay results from patent US20130203662A1, “Mini-Hepcidin Peptides and Methods of Using Thereof” (priority 2008, published 2013).
Square brackets hold non-standard residues; d marks the D form. Peptide text beside a SMILES is read from it.

Columns and labels:
[1] = biological target: T1, ferroportin fused to green fluorescent protein (ECR293/Fpn-GFP cells) (Mus musculus, UniProt Q9JHI9); experiment: Flow cytometry of ferroportin-GFP internalization and degradation in ECR293/Fpn-GFP cells; assay type: cell-based; settings: concentration eliciting 50% of maximal loss of fluorescence generated by reference Hep25; 24 hours; read-out: EC50 (the source's name)
T1 sequence (Q9JHI9 1-570): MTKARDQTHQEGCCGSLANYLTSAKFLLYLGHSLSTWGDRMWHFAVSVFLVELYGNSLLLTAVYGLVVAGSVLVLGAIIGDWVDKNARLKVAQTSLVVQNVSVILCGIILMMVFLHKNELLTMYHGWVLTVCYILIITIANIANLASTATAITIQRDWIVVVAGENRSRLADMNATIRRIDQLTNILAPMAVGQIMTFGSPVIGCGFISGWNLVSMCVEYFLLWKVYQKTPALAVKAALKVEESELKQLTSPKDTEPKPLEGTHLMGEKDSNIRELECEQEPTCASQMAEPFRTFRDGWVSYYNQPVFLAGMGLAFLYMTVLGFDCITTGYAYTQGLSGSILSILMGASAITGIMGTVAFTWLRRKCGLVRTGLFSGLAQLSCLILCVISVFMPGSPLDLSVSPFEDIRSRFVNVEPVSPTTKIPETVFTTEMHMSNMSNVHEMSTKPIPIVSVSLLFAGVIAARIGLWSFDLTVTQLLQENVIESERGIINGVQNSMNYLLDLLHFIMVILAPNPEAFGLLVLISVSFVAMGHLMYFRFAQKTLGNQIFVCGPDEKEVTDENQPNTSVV
Method: In vitro activity may be measured by the dose-dependent loss of fluorescence of cells engineered to display ferroportin fused to green fluorescent protein as in Nemeth et al. (2006) Blood 107:328-33. […]
FLOW CYTOMETRY. The activity of peptides of the present invention was measured by flow cytometry as previously described. See Nemeth et al. (2006) Blood 107:328-333, which is herein incorporated by reference. ECR293/Fpn-GFP, a cell line stably transfected with a ponasterone-inducible ferroportin construct tagged at the C-terminus with green fluorescent protein was used. See Nemeth et al. (2004) Science 306:2090-2093, which is herein incorporated by reference. Briefly, the cells were plated on poly-D-lysine coated plates in the presence of 20 μM FAC, with or without 10 μM ponasterone. After 24 hours, ponasterone was washed off, and cells were treated with peptides for 24 hours. Cells were then trypsinized and resuspended at 1×10^6 cells/ml, and the intensity of green fluorescence was analyzed by flow cytometry. […] Cells not induced with ponasterone to express Fpn-GFP were used to establish a gate to exclude background fluorescence. Cells induced with ponasterone, but not treated with any peptides, were used as the positive control. Each peptide was tested over the range of concentrations (0, 0.01, 0.03, 0.1, 0.3, 1, 3 and 10 μM). Each peptide treatment was repeated independently 3 to 6 times.

C57/B16J mice = experiment: Serum iron assay in mice after peptide administration; assay type: in vivo; settings: i.p., 4 hours
Method: Serum iron assay. The decrease in serum iron after peptide administration is the principal measure of hepcidin activity. Thus, as provided herein, the hepcidin activity of selected peptides of the present invention were assayed in vivo by measuring serum iron in test subjects. […] Two weeks before the experiment, the mice were switched to a diet containing about 2-4 ppm iron (Harlan Teklad, Indianapolis, Ind.) in order to suppress endogenous hepcidin. Peptide stocks were diluted to desired concentrations in sterile phosphate buffered saline (PBS) or other diluents as described next. […] Mice were sacrificed 4 hours later, blood was collected by cardiac puncture, and serum was separated using MICROTAINER tubes (Becton Dickinson, Franklin Lakes, N.J.). Serum iron was determined by using a colorimetric assay (Diagnostic Chemicals, Oxford, Conn.), which was modified for the microplate format so that 10 μl serum was used per measurement. The results were expressed as the percentage of decrease in serum iron when compared with the average value of serum iron levels in PBS-treated mice.

SMILES	DC50 [1] [nM]	serum iron (C57/B16J mice; 50 μg per mouse in PBS, vs PBS)	serum iron (C57/B16J mice; 20 nmoles in PBS)	serum iron (C57/B16J mice; 200 nmoles in PBS)
CC[C@@H](C)[C@@H](NC(=O)[C@H](N)Cc1ccccc1)C(=O)N[C@H](CS)C(=O)N[C@@H](C(=O)N1CCC[C@@H]1C(=O)N[C@H](Cc1ccccc1)C(=O)N[C@H](Cc1c[nH]cn1)C(=O)N[C@@H](C(=O)N[C@H](CC(=O)O)C(N)=O)[C@H](C)O)[C@H](C)CC [Pr12]	900	significant decrease in serum iron after 4 hours		
CC[C@@H](C)[C@@H](NC(=O)[C@H](N)Cc1ccccc1)C(=O)N[C@H](CS)C(=O)N[C@@H](C(=O)N1CCC[C@@H]1C(=O)N[C@H](Cc1ccccc1)C(=O)N[C@H](Cc1c[nH]cn1)C(N)=O)[C@H](C)CC [riHep7ΔDT] (H-[dF][dI][dC][dI][dP][dF][dH]-NH2; N-terminus assumed)	150		slightly but not significantly reduced serum iron concentrations	serum iron concentrations significantly lower than those achieved after injection of PBS
